Broadly, the inhibition is the relative decrease from the control value, in per cent. The IC50 is the point on the concentration scale where inhibition reaches its midpoint. Higher therefore signals a need for much substance.

From ChEMBL document CHEMBL3627608, “Crystal structures of human RIP2 kinase catalytic domain complexed with ATP-competitive inhibitors: Foundations for understanding inhibitor selectivity” (Bioorg Med Chem, 2015) come the findings set out here.

In experiment [1] the target is Glycogen synthase kinase-3 beta (Homo sapiens) (UniProt P49841). Description: Inhibition of GSK3beta (unknown origin) at 10 uM after 120 mins P33 radiolabeled kinase activity assay.
The target of experiment [2] is Tyrosine-protein kinase JAK1 (Homo sapiens) (UniProt P23458). In words: Inhibition of JAK1 (unknown origin) at 10 uM after 120 mins P33 radiolabeled kinase activity assay.
Sequence of Tyrosine-protein kinase JAK1 (Homo sapiens) (P23458 whole entry): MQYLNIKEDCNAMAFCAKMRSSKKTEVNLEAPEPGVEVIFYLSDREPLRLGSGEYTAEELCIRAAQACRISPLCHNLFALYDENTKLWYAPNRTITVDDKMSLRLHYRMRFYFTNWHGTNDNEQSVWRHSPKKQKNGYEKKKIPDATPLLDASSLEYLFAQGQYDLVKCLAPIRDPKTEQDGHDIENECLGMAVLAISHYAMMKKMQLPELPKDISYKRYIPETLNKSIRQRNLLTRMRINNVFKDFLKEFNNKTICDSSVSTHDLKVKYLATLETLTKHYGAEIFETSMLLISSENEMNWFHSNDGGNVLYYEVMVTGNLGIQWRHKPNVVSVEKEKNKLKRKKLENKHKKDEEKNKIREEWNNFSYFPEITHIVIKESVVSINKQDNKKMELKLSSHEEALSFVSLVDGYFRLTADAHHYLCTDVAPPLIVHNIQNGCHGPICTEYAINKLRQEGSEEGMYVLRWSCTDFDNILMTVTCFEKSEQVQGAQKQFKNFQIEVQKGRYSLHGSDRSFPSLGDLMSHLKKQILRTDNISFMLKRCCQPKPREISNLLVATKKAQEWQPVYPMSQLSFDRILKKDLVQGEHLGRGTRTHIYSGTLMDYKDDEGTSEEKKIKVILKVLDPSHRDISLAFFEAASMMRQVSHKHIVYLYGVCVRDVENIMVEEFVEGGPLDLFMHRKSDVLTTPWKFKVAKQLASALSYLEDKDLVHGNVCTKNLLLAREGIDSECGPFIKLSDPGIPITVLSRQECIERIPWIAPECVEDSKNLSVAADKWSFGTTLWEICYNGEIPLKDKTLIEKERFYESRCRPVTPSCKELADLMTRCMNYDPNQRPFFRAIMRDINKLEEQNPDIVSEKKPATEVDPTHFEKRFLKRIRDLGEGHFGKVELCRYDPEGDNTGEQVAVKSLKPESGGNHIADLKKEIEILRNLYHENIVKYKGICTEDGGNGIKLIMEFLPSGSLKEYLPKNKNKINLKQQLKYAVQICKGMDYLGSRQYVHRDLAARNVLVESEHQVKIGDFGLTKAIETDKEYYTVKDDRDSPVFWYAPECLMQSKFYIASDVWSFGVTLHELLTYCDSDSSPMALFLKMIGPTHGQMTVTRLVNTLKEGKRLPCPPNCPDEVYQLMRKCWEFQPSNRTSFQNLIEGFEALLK
The target of experiment [3] is Serine/threonine-protein kinase WNK2 (Homo sapiens) (UniProt Q9Y3S1). Description: Inhibition of WNK2 (unknown origin) at 10 uM after 120 mins P33 radiolabeled kinase activity assay.
Sequence of Serine/threonine-protein kinase WNK2 (Homo sapiens) (Q9Y3S1 whole entry): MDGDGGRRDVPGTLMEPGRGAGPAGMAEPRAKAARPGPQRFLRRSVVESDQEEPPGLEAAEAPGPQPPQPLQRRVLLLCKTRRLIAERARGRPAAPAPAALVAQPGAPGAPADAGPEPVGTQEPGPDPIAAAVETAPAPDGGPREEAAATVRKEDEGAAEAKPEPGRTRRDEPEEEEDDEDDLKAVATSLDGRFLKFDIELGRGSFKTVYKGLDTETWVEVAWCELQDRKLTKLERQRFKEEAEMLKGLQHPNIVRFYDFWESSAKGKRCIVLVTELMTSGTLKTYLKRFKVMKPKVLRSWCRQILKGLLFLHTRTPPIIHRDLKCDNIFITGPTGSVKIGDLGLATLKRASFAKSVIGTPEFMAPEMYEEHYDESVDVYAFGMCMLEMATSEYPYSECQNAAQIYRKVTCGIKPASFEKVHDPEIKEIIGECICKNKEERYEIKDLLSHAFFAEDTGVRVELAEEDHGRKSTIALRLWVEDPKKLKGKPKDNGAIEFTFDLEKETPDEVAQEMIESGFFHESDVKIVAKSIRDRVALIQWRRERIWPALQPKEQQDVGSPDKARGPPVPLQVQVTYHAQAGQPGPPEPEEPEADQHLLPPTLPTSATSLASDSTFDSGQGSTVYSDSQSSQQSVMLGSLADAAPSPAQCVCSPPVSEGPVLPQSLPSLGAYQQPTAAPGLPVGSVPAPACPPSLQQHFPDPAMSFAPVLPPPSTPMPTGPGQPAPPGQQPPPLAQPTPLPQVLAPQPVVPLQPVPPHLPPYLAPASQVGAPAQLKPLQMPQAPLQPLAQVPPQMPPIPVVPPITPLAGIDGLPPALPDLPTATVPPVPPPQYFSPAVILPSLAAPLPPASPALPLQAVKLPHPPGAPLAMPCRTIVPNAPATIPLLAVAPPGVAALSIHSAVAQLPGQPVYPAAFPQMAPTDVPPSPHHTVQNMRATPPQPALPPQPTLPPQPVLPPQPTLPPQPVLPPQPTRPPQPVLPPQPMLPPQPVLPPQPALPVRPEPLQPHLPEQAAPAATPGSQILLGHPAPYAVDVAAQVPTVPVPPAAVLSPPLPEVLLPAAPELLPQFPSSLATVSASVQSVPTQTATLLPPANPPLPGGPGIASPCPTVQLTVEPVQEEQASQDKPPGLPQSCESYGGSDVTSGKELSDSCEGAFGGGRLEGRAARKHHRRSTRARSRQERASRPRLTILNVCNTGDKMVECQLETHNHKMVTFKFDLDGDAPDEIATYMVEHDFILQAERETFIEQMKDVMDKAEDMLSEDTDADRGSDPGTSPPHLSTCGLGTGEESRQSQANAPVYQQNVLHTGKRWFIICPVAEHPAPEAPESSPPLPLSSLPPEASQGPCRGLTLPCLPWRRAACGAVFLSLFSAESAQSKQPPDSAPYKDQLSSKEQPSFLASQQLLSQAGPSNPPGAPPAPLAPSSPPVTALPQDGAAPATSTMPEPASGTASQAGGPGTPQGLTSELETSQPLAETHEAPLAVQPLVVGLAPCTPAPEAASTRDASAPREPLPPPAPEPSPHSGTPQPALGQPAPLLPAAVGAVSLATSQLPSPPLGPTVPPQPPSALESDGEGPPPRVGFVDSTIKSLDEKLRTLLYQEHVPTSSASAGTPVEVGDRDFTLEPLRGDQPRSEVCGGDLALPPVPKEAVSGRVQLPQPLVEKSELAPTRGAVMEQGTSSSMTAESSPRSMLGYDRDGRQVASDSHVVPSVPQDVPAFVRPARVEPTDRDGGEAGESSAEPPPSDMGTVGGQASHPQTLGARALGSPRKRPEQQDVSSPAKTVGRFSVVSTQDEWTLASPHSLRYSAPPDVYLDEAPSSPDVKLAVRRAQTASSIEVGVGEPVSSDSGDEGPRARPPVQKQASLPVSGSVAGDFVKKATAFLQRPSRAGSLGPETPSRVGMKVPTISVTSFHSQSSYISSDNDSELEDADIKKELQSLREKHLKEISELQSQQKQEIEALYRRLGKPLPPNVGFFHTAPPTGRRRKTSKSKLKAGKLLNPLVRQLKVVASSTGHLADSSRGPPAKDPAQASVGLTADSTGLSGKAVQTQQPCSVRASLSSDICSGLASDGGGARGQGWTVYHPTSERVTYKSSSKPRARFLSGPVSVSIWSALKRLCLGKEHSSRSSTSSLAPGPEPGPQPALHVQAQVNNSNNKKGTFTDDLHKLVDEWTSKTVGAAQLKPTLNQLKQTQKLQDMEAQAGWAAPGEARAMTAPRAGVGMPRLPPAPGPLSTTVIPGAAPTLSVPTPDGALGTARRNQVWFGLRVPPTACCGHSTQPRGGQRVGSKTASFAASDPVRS
For experiment [4], the target named is Activin receptor type-1-like (Homo sapiens) (UniProt P37023). Description: Inhibition of ALK1 (unknown origin) at 10 uM after 120 mins P33 radiolabeled kinase activity assay.
Experiment [5] has as its target Receptor-interacting serine/threonine-protein kinase 2 (Homo sapiens, UniProt O43353). In words: Inhibition of full-length FLAG-6His-TEV tagged human RIP2 expressed in Sf9 cells by fluorescent polarization assay.
Experiment [6] deals with Aurora kinase B (Homo sapiens) (UniProt Q96GD4). Description: Inhibition of Aurora B (unknown origin) at 10 uM after 120 mins P33 radiolabeled kinase activity assay.
Sequence of Aurora kinase B (Homo sapiens) (Q96GD4 whole entry): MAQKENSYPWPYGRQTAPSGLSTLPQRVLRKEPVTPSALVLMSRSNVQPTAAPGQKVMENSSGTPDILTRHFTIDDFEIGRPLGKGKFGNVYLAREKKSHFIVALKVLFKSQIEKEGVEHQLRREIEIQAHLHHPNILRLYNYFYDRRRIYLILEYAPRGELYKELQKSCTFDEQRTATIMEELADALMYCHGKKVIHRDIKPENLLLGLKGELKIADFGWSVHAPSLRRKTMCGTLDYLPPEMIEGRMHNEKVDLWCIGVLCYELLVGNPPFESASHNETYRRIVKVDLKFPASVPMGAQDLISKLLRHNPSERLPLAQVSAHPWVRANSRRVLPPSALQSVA
Experiment [7] has as its target T1, Aurora kinase C (Homo sapiens) (UniProt Q9UQB9).
T1 sequence (whole entry): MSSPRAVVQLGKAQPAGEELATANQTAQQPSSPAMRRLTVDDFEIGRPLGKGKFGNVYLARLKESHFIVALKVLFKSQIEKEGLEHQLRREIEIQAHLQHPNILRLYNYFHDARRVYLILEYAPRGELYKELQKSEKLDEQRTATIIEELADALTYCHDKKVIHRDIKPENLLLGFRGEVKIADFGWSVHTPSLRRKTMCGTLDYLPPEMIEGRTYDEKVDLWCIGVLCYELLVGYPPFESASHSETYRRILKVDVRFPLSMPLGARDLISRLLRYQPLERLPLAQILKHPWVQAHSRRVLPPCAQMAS
In words: Inhibition of Aurora C (unknown origin) at 10 uM after 120 mins P33 radiolabeled kinase activity assay.

Experiment [8] addresses T2, Cytoplasmic tyrosine-protein kinase BMX (Homo sapiens) (UniProt P51813).
T2 sequence (whole entry): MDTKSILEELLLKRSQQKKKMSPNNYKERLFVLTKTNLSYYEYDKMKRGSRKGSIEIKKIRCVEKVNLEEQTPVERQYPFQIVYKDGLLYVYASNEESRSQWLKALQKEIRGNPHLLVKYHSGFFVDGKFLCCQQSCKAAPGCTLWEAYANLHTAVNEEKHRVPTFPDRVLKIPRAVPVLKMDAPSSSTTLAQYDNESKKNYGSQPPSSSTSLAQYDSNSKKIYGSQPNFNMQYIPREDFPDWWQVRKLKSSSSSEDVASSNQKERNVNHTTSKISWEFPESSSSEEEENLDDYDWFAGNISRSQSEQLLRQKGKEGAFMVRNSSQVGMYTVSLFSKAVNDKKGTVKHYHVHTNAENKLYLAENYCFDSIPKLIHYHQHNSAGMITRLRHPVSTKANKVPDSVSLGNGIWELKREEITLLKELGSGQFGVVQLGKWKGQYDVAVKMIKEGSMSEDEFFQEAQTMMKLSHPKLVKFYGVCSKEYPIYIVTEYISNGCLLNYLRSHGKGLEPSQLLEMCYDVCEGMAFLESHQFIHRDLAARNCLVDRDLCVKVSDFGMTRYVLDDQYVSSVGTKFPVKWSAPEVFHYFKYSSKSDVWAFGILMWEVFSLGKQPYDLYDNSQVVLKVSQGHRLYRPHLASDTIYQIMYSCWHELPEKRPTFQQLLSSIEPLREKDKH
In words: Inhibition of BMX (unknown origin) at 10 uM after 120 mins P33 radiolabeled kinase activity assay.

In experiment [9] the target is T3, Serine/threonine-protein kinase BRSK2 (Homo sapiens) (UniProt Q8IWQ3).
T3 sequence (whole entry): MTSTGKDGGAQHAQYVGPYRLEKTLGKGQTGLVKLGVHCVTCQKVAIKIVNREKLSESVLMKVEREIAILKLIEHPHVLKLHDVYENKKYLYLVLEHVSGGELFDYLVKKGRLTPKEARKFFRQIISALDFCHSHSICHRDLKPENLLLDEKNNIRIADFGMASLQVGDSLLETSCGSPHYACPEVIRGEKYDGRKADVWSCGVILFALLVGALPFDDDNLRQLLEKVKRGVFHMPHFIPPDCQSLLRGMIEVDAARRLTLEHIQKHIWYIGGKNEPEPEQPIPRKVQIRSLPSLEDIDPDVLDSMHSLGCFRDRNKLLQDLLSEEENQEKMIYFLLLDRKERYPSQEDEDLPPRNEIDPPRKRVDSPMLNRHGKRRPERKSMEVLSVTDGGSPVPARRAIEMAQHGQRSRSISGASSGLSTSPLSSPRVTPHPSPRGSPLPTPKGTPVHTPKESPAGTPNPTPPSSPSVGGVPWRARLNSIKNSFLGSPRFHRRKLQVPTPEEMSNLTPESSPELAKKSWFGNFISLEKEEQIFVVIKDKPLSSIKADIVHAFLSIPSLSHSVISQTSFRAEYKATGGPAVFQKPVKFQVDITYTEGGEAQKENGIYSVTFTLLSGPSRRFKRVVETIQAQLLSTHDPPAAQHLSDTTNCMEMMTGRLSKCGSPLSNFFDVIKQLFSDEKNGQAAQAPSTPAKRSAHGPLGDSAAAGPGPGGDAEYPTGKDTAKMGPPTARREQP
In words: Inhibition of BRSK2 (unknown origin) at 10 uM after 120 mins P33 radiolabeled kinase activity assay.

Experiment [10] has as its target Calcium/calmodulin-dependent protein kinase type 1D (Homo sapiens) (UniProt Q8IU85). In words: Inhibition of CAMK1delta (unknown origin) at 10 uM after 120 mins P33 radiolabeled kinase activity assay.
Experiment [11] addresses CDK1/Cyclin A (Homo sapiens) (UniProt P06493+P20248). Description: Inhibition of CDK1/cyclin A (unknown origin) at 10 uM after 120 mins P33 radiolabeled kinase activity assay. It is filed as protein-complex assay.
Experiment [12] deals with Cyclin-dependent kinase 1/cyclin B1 (Homo sapiens) (UniProt P06493+P14635). Description: Inhibition of CDK1/cyclin B (unknown origin) at 10 uM after 120 mins P33 radiolabeled kinase activity assay. It is filed as protein-complex assay.
Experiment [13] deals with Casein kinase I isoform delta (Homo sapiens) (UniProt P48730). In words: Inhibition of CK1delta (unknown origin) at 10 uM after 120 mins P33 radiolabeled kinase activity assay.
Sequence of Casein kinase I isoform delta (Homo sapiens) (P48730 whole entry, looked up, canonical isoform): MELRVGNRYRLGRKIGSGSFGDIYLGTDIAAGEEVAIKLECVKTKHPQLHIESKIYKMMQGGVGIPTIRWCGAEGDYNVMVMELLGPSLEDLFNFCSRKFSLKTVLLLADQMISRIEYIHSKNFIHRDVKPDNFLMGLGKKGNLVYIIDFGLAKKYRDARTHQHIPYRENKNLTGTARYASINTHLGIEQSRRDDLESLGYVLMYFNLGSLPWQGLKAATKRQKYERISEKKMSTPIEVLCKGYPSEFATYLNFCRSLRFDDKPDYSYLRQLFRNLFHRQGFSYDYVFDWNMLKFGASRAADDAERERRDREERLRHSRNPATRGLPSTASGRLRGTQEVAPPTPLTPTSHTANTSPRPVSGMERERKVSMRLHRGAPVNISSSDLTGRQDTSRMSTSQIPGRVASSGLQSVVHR

Sequence of CDK1/Cyclin A (Homo sapiens) (P06493 whole entry, looked up): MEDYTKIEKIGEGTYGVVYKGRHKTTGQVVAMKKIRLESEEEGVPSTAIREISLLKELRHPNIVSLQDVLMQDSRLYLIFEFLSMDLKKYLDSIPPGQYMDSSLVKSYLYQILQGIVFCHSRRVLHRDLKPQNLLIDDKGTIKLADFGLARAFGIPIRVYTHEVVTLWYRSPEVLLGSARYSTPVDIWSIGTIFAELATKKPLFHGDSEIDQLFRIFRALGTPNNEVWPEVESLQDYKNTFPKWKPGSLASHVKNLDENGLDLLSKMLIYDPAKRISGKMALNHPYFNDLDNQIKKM
Sequence of CDK1/Cyclin A (Homo sapiens) (P20248 whole entry, looked up): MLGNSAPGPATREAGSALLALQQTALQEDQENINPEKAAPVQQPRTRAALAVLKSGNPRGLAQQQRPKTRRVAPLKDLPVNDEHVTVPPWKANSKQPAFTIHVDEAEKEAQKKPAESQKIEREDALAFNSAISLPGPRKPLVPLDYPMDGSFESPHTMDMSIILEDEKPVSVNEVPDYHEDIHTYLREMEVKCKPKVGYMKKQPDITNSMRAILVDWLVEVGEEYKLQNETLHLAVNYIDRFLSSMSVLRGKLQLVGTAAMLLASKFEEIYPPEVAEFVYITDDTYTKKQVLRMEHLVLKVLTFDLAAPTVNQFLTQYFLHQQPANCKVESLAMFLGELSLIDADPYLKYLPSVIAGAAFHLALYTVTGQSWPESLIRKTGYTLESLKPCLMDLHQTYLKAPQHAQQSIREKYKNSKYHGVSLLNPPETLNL

As to `CS(=O)(=O)c1cccc(Nc2nccc(-c3sc(N4CCOCC4)nc3-c3cccc(NS(=O)(=O)c4c(F)cccc4F)c3)n2)c1`, the inhibition in experiment [1] was 98.9%; in [2] it was -2.11%; in [3] it was 43%; in experiment [4], 96.2%; in experiment [6] it was 82.1%; in experiment [7] it was 11%. For the same compound, the inhibition was 98% in [8]; 34% in [9]; 76.3% in experiment [10]; 34.2% in [11]; 70.8% in experiment [12]; 20.5% in experiment [13]. This compound also showed an IC50 in experiment [5] of 7.9 nM.
With `CC(C)(C)c1cc(NC(=O)Nc2ccc(Oc3ccncc3)cc2)no1`, the inhibition in [1] is 34.9%; in [2], -3.4%; in experiment [3] it was 3.16%; in [4], 3.54%; in experiment [6], 49.2%; in [7], 15.8%. Also, the inhibition is 15.5% in experiment [8]; 18.2% in experiment [9]; 8.06% in experiment [10]; 7.46% in [11]; 35.1% in experiment [12]; 13.5% in [13]. Further, the midpoint of inhibition in experiment [5], the IC50, lay at 320 nM.
In the case of `COCCNC(=O)c1ccc2c(c1)nc(-c1cnc(-c3ccc(Cl)cc3)[nH]1)n2CCOC`, the inhibition was 16.9% in experiment [1]; 5.2% in experiment [2]; 3.46% in experiment [3]; 28.2% in experiment [4]; 6.36% in experiment [6]; 3.77% in experiment [7]. In addition, the inhibition is 13.9% in [8]; 26.4% in experiment [9]; 3.59% in experiment [10]; -6.11% in experiment [11]; -3.76% in experiment [12]; 77.8% in [13]. In experiment [5], the half-maximal inhibitory concentration (IC50) stood at 500 nM.
